# Columns and labels:
# [1] = system: retinoic acid receptors α, β or γ; assay: Competitive binding with ³H-T-RA to nucleosol of RAR-transfected COS-1 cells; parameters: species or system human; details: concentrations as high as 1 µM; 5 nM ³H-T-RA, 4°C, 30 minutes
# Description: Competitive binding studies were performed as follows. COS-1 cells were transfected with the cDNAs encoding RARs α, β or γ in the expression vector pSG5 (described in Example 1). The cells were cultured for 72 hours and the nucleosol fraction isolated (14). Nucleosol fractions were incubated (14) at 4°C for 30 minutes with 5 nM ³H-T-RA with various concentrations of unlabeled 13-cis RA. Bound was separated from free radioactivity using PD10 columns as described in Example 1 above.
# RARα [2] = biological target: T1, RARα (Homo sapiens, UniProt P10276); assay: Displacement of radiolabel from nucleosol of COS-1 cells treated in culture with ³H-T-RA; details: excess unlabeled T-RA (10 µM), 4 hours at 4°C
# T1 sequence (P10276 1-462): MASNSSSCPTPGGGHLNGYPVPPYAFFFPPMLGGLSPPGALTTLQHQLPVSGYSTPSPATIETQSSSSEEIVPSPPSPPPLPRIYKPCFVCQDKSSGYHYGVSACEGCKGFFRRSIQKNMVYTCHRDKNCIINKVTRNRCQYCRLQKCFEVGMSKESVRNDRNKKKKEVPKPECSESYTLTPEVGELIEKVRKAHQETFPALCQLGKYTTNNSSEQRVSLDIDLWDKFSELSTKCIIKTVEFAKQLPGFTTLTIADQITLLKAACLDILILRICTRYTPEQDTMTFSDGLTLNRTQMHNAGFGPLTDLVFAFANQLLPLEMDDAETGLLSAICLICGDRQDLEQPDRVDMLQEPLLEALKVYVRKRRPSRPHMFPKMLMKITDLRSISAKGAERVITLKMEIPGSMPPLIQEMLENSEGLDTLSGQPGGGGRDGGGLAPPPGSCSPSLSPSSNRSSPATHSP
# RARα [3] = biological target: T1, RARα; assay: In vitro binding of ³H-T-RA to nucleosol of transfected COS-1 cells; details: nucleosol from RARα-transfected COS-1 cells; 10 nM ³H-T-RA, 2 hours at 4°C
smiles,measurement,setting,value
"CC1=C(/C=C/C(C)=C/C=C/C(C)=C\C(=O)O)C(C)(C)CCC1 [13-cis RA, 13-cis retinoic acid]",competition with ³H-T-RA for binding,[1],minimal competition for binding
"CC1=C(/C=C/C(C)=C/C=C/C(C)=C/C(=O)O)C(C)(C)CCC1 [T-RA, all-trans retinoic acid]",displacement of bound radiolabel,RARα [2],displaces radioactivity bound in the RARα nucleosol
[3H]C(/C=C(C)/C=C/C1=C(C)CCCC1(C)C)=C([3H])\C(C)=C\C(=O)O [³H-T-RA],binding of ³H-T-RA,RARα [3],considerable binding

# Reference: patent EP0552612A2, “Methods for determining and isolating compounds which bind directly to nucleosolic proteins” (F. HOFFMANN-LA ROCHE AG, priority 1992, dated 1993)
